Data reported in US10709692B2, “Isoxazolidine derived inhibitors of receptor interacting protein kinase 1 (RIPK1)” (Denali Therapeutics Inc., priority 2015, dated 2020).
Several values for one entry are separate records, joined by “and”; a condition that tells them apart may be missing. Identical values can stand only once.

Biological target: T1, receptor interacting protein kinase 1 (GST-hRIPK1 (8-327)) (Homo sapiens, UniProt Q13546)
T1 construct: GST-hRIPK1 (8-327) enzyme was generated by Proteros GmbH by Baculovirus expression system
T1 sequence (Q13546 8-327): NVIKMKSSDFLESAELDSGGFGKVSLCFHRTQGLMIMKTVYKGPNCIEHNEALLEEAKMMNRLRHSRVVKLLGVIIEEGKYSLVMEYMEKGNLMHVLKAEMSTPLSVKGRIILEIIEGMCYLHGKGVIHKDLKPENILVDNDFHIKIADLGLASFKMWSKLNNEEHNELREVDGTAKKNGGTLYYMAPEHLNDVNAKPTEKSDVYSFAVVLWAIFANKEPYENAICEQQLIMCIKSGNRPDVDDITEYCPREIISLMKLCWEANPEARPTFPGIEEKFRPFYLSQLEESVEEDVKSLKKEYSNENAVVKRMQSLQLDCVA
Experiment: Fluorescent Polarization Binding (FP Binding) assay
Details: 10 nM GST-hRIPK1 (8-327), 5 nM fluorescent-labeled ligand, 30 min at RT
Procedure: Fluorescent Polarization Binding (FP Binding) assay (Berger S. B. et al. (2015) Cell Death Discovery, 1: 15009; Maki J. L. et al. (2012) Anal Biochem., 427(2): 164-174) was performed in polystyrene low volume 384-well black plate, at Room Temperature (RT) in a final volume of 10.1 μl/well using 10 nM of GST-hRIPK1 (8-327) enzyme and 5 nM of fluorescent-labeled ligand (14-(2-{[3-({2-{[4-(cyanomethyl)phenyl]amino}-6-[(5-cyclopropyl-1H-pyrazol-3-yl)amino]-4-pyrimidinyl}amino) propyl]amino}-2-oxoethyl)-16,16,18,18-tetramethyl-6,7,7a,8a,9,10,16,18-octahydrobenzo[2″3″]indolizino[8″, 0.7″:5′,6′]pyrano[3′,2′:3,4]pyrido[1,2-a]indol-5-ium-2-sulfonate.
Test compounds were serially diluted in DMSO at 100 fold final concentrations in the assay (1% DMSO final). In each well of a 384-well Plate were dispensed 0.1 μL of compound solution (or DMSO for controls) followed by 5 μL of GST-hRIPK1 (8-327) at twice the final concentrations in assay-buffer (50 mM HEPES pH 7.5, 10 mM NaCl, 50 mM MgCl2, 0.02% CHAPS, 0.5 mM DTT and 0.01% Pluronic F127). For negative control the enzyme addition was replaced by assay buffer only.
After addition of 5 μL of fluorescent-labeled ligand at twice the final concentrations in assay buffer, the plate was incubated at RT for 30 min. At the end, the binding was measured as FP value with the Envision (PerkinElmer) plate reader using filter for an excitation λ=531 nm FP and an emission λ=595 nm FP (S & P-pol).
Test compound inhibition was expressed as percent inhibition of internal assay controls. For concentration response curves, normalized data is fit and IC50 determined using XL-fit (IDBS) for Excel. IC50 were averaged to determine a mean value, for a minimum of two independent experiments.
Receptor interacting protein kinase 1 activity of exemplary compounds was determined according to the above general procedures.
Receptor interacting protein kinase 1 activity of certain compounds was determined according to the above general procedures.

SMILES	IC50
CC1(C(=O)N2OCC[C@H]2c2ccc(F)cc2)CCCOC1 (single isomer, unassigned) [Compound 35]	< 1000 nM
CC1(C(=O)N2OCC[C@H]2c2ccc(F)cc2)CCCOC1 (single isomer, unassigned) [Compound 36]	< 1000 nM
CC1(C(=O)N2OCC[C@H]2c2ccc(F)cc2)CCOC1 (single isomer, unassigned) [Compound 40]	< 1000 nM
CC1(C(=O)N2OCC[C@H]2c2ccc(F)cc2)CCOC1 (single isomer, unassigned) [Compound 41]	< 1000 nM
O=C(C1CCO1)N1OCC[C@H]1c1ccccc1 (single isomer, unassigned) [Compound 52]	> 10000 nM
O=C(C1CCO1)N1OCC[C@H]1c1ccccc1 (single isomer, unassigned) [Compound 53]	1000 to 10000 nM
CC(C)(C)C(=O)N1OCC[C@H]1c1ccc(F)nc1 (single isomer, unassigned) [Compound 61]	< 1000 nM and 28 nM
CC(C(=O)N1OCC[C@H]1c1ccc(F)cc1)C(F)(F)F (single isomer, unassigned) [Compound 94]	< 1000 nM
CC(C(=O)N1OCC[C@H]1c1ccc(F)cc1)C(F)(F)F (single isomer, unassigned) [Compound 95]	< 1000 nM
CC(C)(C)C(=O)N1OCC[C@@H]1c1cc(F)cc(F)c1 (single isomer, unassigned) [Compound 102]	< 1000 nM
CC(C)(C)C(=O)N1OCC[C@H]1c1cc(F)cc(F)c1 (single isomer, unassigned) [Compound 103]	< 1000 nM
Cc1cncc([C@@H]2CCON2C(=O)C(C)(C)C)n1 (single isomer, unassigned) [Compound 107]	< 1000 nM
CC1(C(=O)N2OCC[C@H]2c2ccc(F)nc2)CC1(F)F (single isomer, unassigned) [Compound 112]	< 1000 nM
CC1(C(=O)N2OCC[C@H]2c2ccc(F)nc2)CC1(F)F (single isomer, unassigned) [Compound 113]	< 1000 nM
CC1(C(=O)N2OCC[C@H]2c2ccc(F)cc2)CC1(F)F (single isomer, unassigned) [Compound 114]	< 1000 nM
CC1(C(=O)N2OCC[C@H]2c2ccc(F)cc2)CC1(F)F (single isomer, unassigned) [Compound 115]	< 1000 nM
CC(C(=O)N1OCC[C@H]1c1ccc(F)nc1)C1CC1 (single isomer, unassigned) [Compound 116]	< 1000 nM
CC(C(=O)N1OCC[C@H]1c1ccc(F)nc1)C1CC1 (single isomer, unassigned) [Compound 117]	< 1000 nM
Cc1cnc([C@@H]2CCON2C(=O)C(C)C(F)(F)F)cn1 (single isomer, unassigned) [Compound 129]	< 1000 nM

Now from value to molecule:

IC50	SMILES
1000 to 10000 nM	CC(C)(C)C(=O)N1OCC[C@@H]1c1ccc(F)nc1 (single isomer, unassigned) [Compound 62]
> 10000 nM	CC(C)(C)C(=O)N1OCCC1c1ccc(F)cc1 (single isomer, unassigned) [Compound 74, 1-[3-(4-Fluorophenyl)-1,2-oxazolidin-2-yl]-2,2-dimethylpropan-1-one]
< 1000 nM	CC(C(=O)N1OCCC1c1ccc(C#N)cc1)C(F)F (single isomer, unassigned) [Compound 91]
< 1000 nM	CC(C(=O)N1OCCC1c1ccc(C#N)cc1)C(F)F (single isomer, unassigned) [Compound 92]
< 1000 nM	[2H]C1([2H])C[C@@H](c2ccc(C#N)cc2)N(C(=O)C(C)(C)C)O1 (single isomer, unassigned) [Compound 98]
< 1000 nM	C[C@H]1C[C@@H](c2ccc(C#N)cc2)N(C(=O)C(C)(C)C)O1 (single isomer, unassigned) [Compound 99]
< 1000 nM	C[C@@H]1C[C@@H](c2ccc(C#N)cc2)N(C(=O)C(C)(C)C)O1 (single isomer, unassigned) [Compound 100]
< 1000 nM and 7 nM	CC(C)(C)C(=O)N1OCC[C@H]1c1cc(F)cc(C#N)c1 (single isomer, unassigned) [Compound 109]
